# Assay results: a melting point compilation (Tetko et al.; mined from patent text by program, amines drawn as free bases though some values may be those of a salt)
row,melting point,SMILES
1,143 to 144 °C,CC(C)(C)OC(=O)N1C[C@@H]2Cc3cc4ccccc4n3C[C@@H]2C1 (relative stereo)
2,> 300 °C,CC(C)(C)n1cnc2c(O)nc3ccccc3c21
3,38 °C,CC1(C)Oc2ccccc2-n2cccc21
4,176 to 186 °C,CS(=O)(=O)Oc1ccc(-c2c3ccccc3c(I)c3sc4ccccc4c23)cc1
5,143 to 145 °C,COCCOc1ccc2c(Cl)c(C#N)cnc2c1
6,201 °C,Nc1ccc2nc(-c3ccccc3)nn2c1
7,245 to 247 °C,Cn1cccc1C(=O)Nc1nc(-c2cccc(C#N)c2)c(-n2cncn2)s1
8,215 to 217 °C,N#Cc1ccc2cc(CCCCc3cc4ccc(C#N)cc4o3)oc2c1
9,150 to 152 °C,O=C1CCC(c2ccc(N3C(=O)c4ccccc4C3=O)cc2)CC1
10,276 to 278 °C,Cn1cc(C2=C(c3c4n(c5ccccc35)CCCC4)C(=O)OC2=O)c2ccccc21
11,> 300 °C,C#Cc1ccc2c(c1)-c1c3c(c4c([nH]c5ccccc54)c1C2)C(=O)NC3
12,112 to 115 °C,CCCCC(CO)Nc1ccc([N+](=O)[O-])cc1C(=O)NCc1ccc2c(c1)OCO2 (configuration not stated)
13,132 to 134 °C,CCCc1nc2c(N)nc(C)c(C)c2n1CCCCN(O)C(=O)c1ccccc1
14,252 to 255 °C,COc1cc([N+](=O)[O-])c(N)cc1C(=O)O
15,139 to 140 °C,COC(=O)c1cc2cc(NS(=O)(=O)c3cccc(Cl)c3C)ccc2o1
16,154 to 159 °C,CCCn1nc(C2CC2)c(C(=O)OCC)c1Cc1ccc(-c2ccccc2-c2nnn(C(c3ccccc3)(c3ccccc3)c3ccccc3)n2)cc1
17,136 to 138 °C,O=C(NCCc1c[nH]c2ccc(C(=O)Nc3ccccc3)cc12)OCc1ccccc1
18,180 to 182 °C,CCOC(=O)COc1ccc(C(=O)Nc2cccc(Cl)c2Sc2ccccc2-c2nnn[nH]2)cc1
19,109 to 110 °C,COc1cc2c(cc1OCc1ccccc1)CCN(Cc1cccc([N+](=O)[O-])c1)C2
20,122 to 127 °C,Nc1nc2ccccc2c2c1ncn2CCCCNC(=O)c1ccc2ncccc2c1

row,melting point,SMILES
1,130 to 132 °C,CCC(C)CNC(=O)c1cc(NC(=O)OCc2ccccc2)cc(C(=O)NCC(C)CC)c1 (configuration not stated)
2,72 to 73 °C,Cc1c(OCCCCCCC(=O)N(C)c2ccccc2)ccc([N+](=O)[O-])c1C=O
3,57 °C,CNc1cc(Cl)c(OC)c([N+](=O)[O-])c1OC
4,132 to 137 °C,COC(=O)c1ccc(CNC(=O)c2c(N)cc(Cl)cc2Cl)cc1
5,267 to 268 °C,C=CC[C@H](C(N)=O)[C@@H](CC(C)C)C(=O)NC1N=C(N(C)c2ccccc2)c2ccccc2N(C)C1=O (some centres not stated)
6,155 to 181 °C,Cc1cc(-c2c3ccccc3c(C)c3sc4ccccc4c23)cc(C)c1OCC(=O)O
7,138 to 142 °C,CC1(CN2CCCN(Cc3ccc(-c4ccccc4)cc3)CC2)Cn2cc([N+](=O)[O-])nc2O1 (configuration not stated)
8,173 to 174 °C,Cc1nc(C)c(-c2ccnc(Nc3ccc(N4CCSCC4)cc3)n2)s1
9,224 to 226 °C,Cc1c2ccccc2c(-c2cc(Br)c(O)c(Br)c2)c2c1sc1ccccc12
10,314 to 315 °C,NC(=O)c1nn(-c2ccc(S(N)(=O)=O)cc2)c2cc(-c3ccc(F)cc3)ccc12
11,263 °C,CC1N(CCCCS(=O)(=O)O)c2ccc3ccccc3c2C1(C)C (configuration not stated)
12,> 320 °C,NC(=O)c1ccc(-c2ccc3[nH]c(=O)ccc3c2)cc1
13,145 to 147 °C,Cc1ccn(-c2nc(C)c(C(=O)NCc3ccccc3)s2)c(=O)c1
14,128 °C,O=C(C=Cc1cccc2ccccc12)C=Cc1cccc2ccccc12
15,181 to 183 °C,Cc1ccc(Sc2cncc3sc(C(N)=S)cc23)cc1
16,141 to 142 °C,CC(C)c1nn(-c2ccc(C(F)(F)F)cn2)cc1CCCOc1c(Cl)cccc1CC(=O)O
17,230 to 232 °C,FC(F)(F)c1ccc2c(Nc3ccccc3)ncnc2c1
18,245 to 246 °C,CC(C)c1cccc(C(C)C)c1NC(=O)NC(c1ccccc1)c1ccccc1
19,138 to 139 °C,Cc1oc(-c2ccccc2)nc1COc1ccc(C=CC=O)cc1C(F)(F)F

# The next lines start with the molecule.
row,SMILES,melting point
1,NC(=O)c1c(N)cccc1N1CCCC1,144 to 146 °C
2,Nc1ccccc1CCN1CCCCC1,36 to 38 °C
3,CN(C(=O)CCS(C)=O)c1cnc(-c2cncc(F)c2)s1 (configuration not stated),152 to 154 °C
4,O=c1[nH]c(=O)n(C2OC(CBr)C(O)C2F)cc1C=CBr (configuration not stated),223 °C
5,CC(C)(C)C(=O)NC1CCC(c2cc(Nc3cccc(C(F)(F)F)c3)n[nH]2)C1 (configuration not stated),249 °C
6,Cc1ccc(NC(=O)Nc2ccc(N(CCCl)CCCl)cc2)cc1Nc1c2cccc(C)c2nc2c(C(=O)NCCN(C)C)cccc12,286 to 289 °C
7,Clc1cc(Cl)c(-n2nccc2Cl)c(Cl)c1,96 °C
8,Cc1ccc(C(=O)SCC2C(=O)OCC2c2ccc(Cl)cc2)cc1 (configuration not stated),99 to 100 °C
9,COc1cccc(NN=C(Cl)C(C)=O)c1,117 to 119 °C
10,O=C(O)CNC(=O)c1c(F)cccc1[N+](=O)[O-],148 to 150 °C
11,CC(=O)C(=Cc1ccc(C#N)cc1)C(C)=O,86 to 88 °C
12,COc1c(SC)ccc(C(=O)C(C#N)C(=O)C2CC2)c1Br (configuration not stated),128 to 129 °C
13,CCOC(=O)C1(CC(C)=O)OC(=O)C(=O)C1C(C)=O (configuration not stated),87 to 88 °C
14,N=C(N)NCCCOc1cccc2c1NC(=O)C(CC(=O)O)C2 (configuration not stated),151 to 155 °C
15,CCCCCCC(=O)c1c(O)oc(=O)c(C(=O)CCCCCC)c1O,88 to 90 °C
16,CCOC(=O)C(F)(F)C(O)(CC)c1cc2n(c(=O)c1CO)Cc1cc3ccccc3nc1-2 (configuration not stated),208 to 209 °C
17,CCCCNC(=O)Oc1ccc(Oc2ccc(C(C)(C)C)cc2)cc1,78 to 80 °C

row,SMILES,melting point
1,CC(C)(CSc1ccc(Cl)cc1)C(Cn1ccnc1)=NO,125 to 126 °C
2,Cc1nc2nc(S(=O)(=O)Cl)nn2c(C)c1Cl,131 to 133 °C
3,CCCCCCCCCCCCOc1ccc(CP(=O)(OC)OC)cc1,30 to 31 °C
4,Brc1ccc2scnc2c1,104 to 106 °C
5,CC(N)(C(N)=O)C(F)(F)F (configuration not stated),84 to 85 °C
6,CC(=O)OC1CSC(Oc2ccc(-c3sc(C)nc3C)nc2)C(OC(C)=O)C1OC(C)=O (configuration not stated),174 to 177 °C
7,COC(=O)N1C(=O)NC(C)=C(C(=O)OC(C)C)C1c1cccc(Cl)c1Cl (configuration not stated),208 to 210 °C
8,CN(C)c1ccc(CNc2ccc(Cl)c(Cl)c2)cc1,117 °C
9,Clc1ccc2c(C3CCN(CC4Cc5ccccc5C4)CC3)c[nH]c2c1Cl,141 to 142 °C
10,COc1ccc(CCC(=O)C2C(=O)NC(=O)NC2=O)cc1,248 to 250 °C
11,CS(=O)(=O)c1ccc(-c2nc(C(F)(F)F)nc(Cl)c2-c2ccc(Cl)cc2)cc1,188 to 190 °C
12,O=C(O)C1C2CCC(C2)C1C(F)(F)F (configuration not stated),87 to 90 °C
13,COC1=C(OC)C(OC)C(C=CC(=O)O)(OC)C=C1C (configuration not stated),117 to 118 °C
14,CCOC(=O)NN(C)C(=S)Nc1ccc(Cl)cc1F,151 °C
15,N#Cc1nn(-c2c(Cl)cc(C(F)(F)F)cc2Cl)cc1C(=O)C(F)(F)F,124 to 125 °C
16,CN(C)S(=O)(=O)c1ccc(C(F)(F)F)cc1[N+](=O)[O-],102 to 104 °C
